In patent US20240083897A1, “GCN2 MODULATING COMPOUNDS AND USES THEREOF” (HiberCell, Inc., priority 2021, published 2024):

Biological target: GCN2 (Homo sapiens (Human), UniProt Q9P2K8)
Test: TR-FRET biochemical assay for inhibition of GCN2
Conditions: not given

GCN2, sequence (Q9P2K8 whole entry): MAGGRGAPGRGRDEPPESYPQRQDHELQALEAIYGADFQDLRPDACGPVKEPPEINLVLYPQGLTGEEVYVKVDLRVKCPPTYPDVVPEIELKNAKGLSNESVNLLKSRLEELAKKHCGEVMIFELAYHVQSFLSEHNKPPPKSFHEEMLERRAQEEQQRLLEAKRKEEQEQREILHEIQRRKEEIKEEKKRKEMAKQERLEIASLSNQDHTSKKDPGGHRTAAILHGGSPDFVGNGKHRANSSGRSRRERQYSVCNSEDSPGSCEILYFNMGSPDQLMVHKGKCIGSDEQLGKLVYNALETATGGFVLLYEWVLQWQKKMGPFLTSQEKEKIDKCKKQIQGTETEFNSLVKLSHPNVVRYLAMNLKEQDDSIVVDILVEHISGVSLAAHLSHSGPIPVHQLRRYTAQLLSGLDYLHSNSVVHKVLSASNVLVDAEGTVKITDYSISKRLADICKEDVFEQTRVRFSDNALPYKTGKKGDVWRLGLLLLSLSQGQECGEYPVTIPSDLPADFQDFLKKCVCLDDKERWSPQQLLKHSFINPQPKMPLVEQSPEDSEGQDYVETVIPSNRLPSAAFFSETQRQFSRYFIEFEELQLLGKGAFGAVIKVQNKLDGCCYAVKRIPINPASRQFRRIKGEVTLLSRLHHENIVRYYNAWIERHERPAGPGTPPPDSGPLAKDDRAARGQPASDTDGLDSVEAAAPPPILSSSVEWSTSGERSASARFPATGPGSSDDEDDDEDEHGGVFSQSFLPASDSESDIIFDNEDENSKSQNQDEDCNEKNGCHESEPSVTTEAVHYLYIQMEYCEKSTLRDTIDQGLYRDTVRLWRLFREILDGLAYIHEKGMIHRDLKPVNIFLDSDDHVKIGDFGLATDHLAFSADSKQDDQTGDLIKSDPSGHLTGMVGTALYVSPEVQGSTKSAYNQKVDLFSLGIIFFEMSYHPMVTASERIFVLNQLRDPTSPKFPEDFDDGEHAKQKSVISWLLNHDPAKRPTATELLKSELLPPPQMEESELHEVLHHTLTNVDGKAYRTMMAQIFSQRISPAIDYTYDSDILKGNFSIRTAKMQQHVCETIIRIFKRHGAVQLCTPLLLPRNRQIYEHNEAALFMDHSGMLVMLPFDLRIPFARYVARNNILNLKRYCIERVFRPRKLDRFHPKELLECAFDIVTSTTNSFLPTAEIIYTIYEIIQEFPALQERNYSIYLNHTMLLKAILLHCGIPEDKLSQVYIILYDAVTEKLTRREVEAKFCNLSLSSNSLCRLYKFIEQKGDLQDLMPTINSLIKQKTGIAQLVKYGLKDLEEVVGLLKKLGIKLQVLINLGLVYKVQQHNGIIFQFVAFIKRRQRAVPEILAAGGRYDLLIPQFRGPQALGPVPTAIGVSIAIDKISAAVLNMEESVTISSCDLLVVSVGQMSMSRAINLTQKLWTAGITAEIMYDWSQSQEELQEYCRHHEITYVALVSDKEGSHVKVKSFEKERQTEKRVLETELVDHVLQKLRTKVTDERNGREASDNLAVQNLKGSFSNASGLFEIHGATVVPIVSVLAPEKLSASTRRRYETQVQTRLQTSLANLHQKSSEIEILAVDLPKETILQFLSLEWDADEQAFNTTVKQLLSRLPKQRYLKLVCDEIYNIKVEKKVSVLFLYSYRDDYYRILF

Compound	IC50 [nM]
CNC(=O)c1ncn2cc(-c3c(F)ccc(NS(=O)(=O)c4cc(Cl)cnc4OCC(C)C)c3F)ncc12 [Compound 176, 6-[3-[5-chloro-2-(2-methylpropoxy)pyridine-3-sulfonamido]-2,6-difluorophenyl]-N-methylimidazo[1,5-a]pyrazine-1-carboxamide]	500 to 1000
CNC(=O)c1ncn2cc(-c3c(F)ccc(NS(=O)(=O)c4cc(Cl)cnc4OC)c3F)c(=O)n(C)c12 [Compound 22, 3-[3-(5-chloro-2-methoxypyridine-3-sulfonamido)-2,6-difluorophenyl]-N,1-dimethyl-2-oxoimidazo[1,5-a]pyrimidine-8-carboxamide]	50 to 500
COc1ncc(Cl)cc1S(=O)(=O)Nc1ccc(F)c(-c2cn3cnc(C(=O)NCCN(C)C)c3cn2)c1F [Compound 179, 6-[3-(5-chloro-2-methoxypyridine-3-sulfonamido)-2,6-difluorophenyl]-N-[2-(dimethylamino)ethyl]imidazo[1,5-a]pyrazine-1-carboxamide]	50 to 500
CNC(=O)c1ncn2c(F)c(-c3c(F)ccc(NS(=O)(=O)c4cc(F)cnc4OC)c3F)ncc12 [Compound 170, 6-[2,6-difluoro-3-(5-fluoro-2-methoxypyridine-3-sulfonamido)phenyl]-5-fluoro-N-methylimidazo[1,5-a]pyrazine-1-carboxamide]	50 to 500
CNC(=O)c1ncn2c1CC[C@@H](c1c(F)ccc(NS(=O)(=O)c3cc(F)cnc3OC)c1Cl)C2 [Compound 152-2, (6S)-6-[2-chloro-6-fluoro-3-(5-fluoro-2-methoxypyridine-3-sulfonamido)phenyl]-N-methyl-5H,6H,7H,8H-imidazo[1,5-a]pyridine-1-carboxamide]	50 to 500
CNC(=O)c1ncn2c1CC[C@@H](c1c(F)ccc(NS(=O)(=O)c3cc(Cl)cnc3OC)c1F)[C@H]2C [Compound 96-2, (5R,6S)-6-[3-(5-chloro-2-methoxypyridine-3-sulfonamido)-2,6-difluorophenyl]-N,5-dimethyl-5H,6H,7H,8H-imidazo[1,5-a]pyridine-1-carboxamide]	500 to 1000
CNC(=O)c1ncn2cc(-c3c(F)ccc(NS(=O)(=O)c4cc(Cl)cnc4OC)c3C)ccc12 [Compound 122, 6-[3-(5-chloro-2-methoxypyridine-3-sulfonamido)-6-fluoro-2-methylphenyl]-N-methylimidazo[1,5-a]pyridine-1-carboxamide]	50 to 500

Same assay, conditions: GCN2 2 nM, 100 nM GFP-eIF2a, 150 μM ATP, TR-FRET

Compound	IC50 [nM]
COc1ncc(Cl)cc1S(=O)(=O)Nc1ccc(F)c(-c2cn3cnc(-c4ncc[nH]4)c3cn2)c1F [Compound 31, 5-chloro-N-[2,4-difluoro-3-[1-(1H-imidazol-2-yl)imidazo[1,5-a]pyrazin-6-yl]phenyl]-2-methoxypyridine-3-sulfonamide]	< 50
COc1ncc(C#N)cc1S(=O)(=O)Nc1ccc(F)c(-c2ccc3c(-c4nc5c([nH]4)CCCC5)ncn3c2)c1F [Compound 123, 5-cyano-N-[2,4-difluoro-3-[1-(4,5,6,7-tetrahydro-1H-1,3-benzodiazol-2-yl)imidazo[1,5-a]pyridin-6-yl]phenyl]-2-methoxypyridine-3-sulfonamide]	< 50
CNC(=O)c1ncc2cc(-c3c(F)ccc(NS(=O)(=O)c4cc(Cl)cnc4OC)c3F)ccn12 [Compound 30, 7-[3-(5-chloro-2-methoxypyridine-3-sulfonamido)-2,6-difluorophenyl]-N-methylimidazo[1,5-a]pyridine-3-carboxamide]	< 50
COc1ncc(F)cc1S(=O)(=O)Nc1ccc(F)c(-c2cn3cnc(-c4ncc[nH]4)c3cn2)c1Cl [Compound 151, N-[2-chloro-4-fluoro-3-[1-(1H-imidazol-2-yl)imidazo[1,5-a]pyrazin-6-yl]phenyl]-5-fluoro-2-methoxypyridine-3-sulfonamide]	< 50
COc1ncc(C#N)cc1S(=O)(=O)Nc1ccc(F)c(-c2cn3cnc(-c4ncc[nH]4)c3cn2)c1F [Compound 69, 5-cyano-N-[2,4-difluoro-3-[1-(1H-imidazol-2-yl)imidazo[1,5-a]pyrazin-6-yl]phenyl]-2-methoxypyridine-3-sulfonamide]	< 50
COc1ncc(F)cc1S(=O)(=O)Nc1ccc(F)c(-c2ccc3c(-c4ccn(C)n4)ncn3c2)c1F [Compound 46, N-[2,4-difluoro-3-[1-(1-methylpyrazol-3-yl)imidazo[1,5-a]pyridin-6-yl]phenyl]-5-fluoro-2-methoxypyridine-3-sulfonamide]	< 50
Cc1ncc(F)cc1S(=O)(=O)Nc1ccc(F)c(-c2ccc3c(-c4nc(C#N)c[nH]4)ncn3c2)c1F [Compound 44, N-[3-[1-(4-cyano-1H-imidazol-2-yl)imidazo[1,5-a]pyridin-6-yl]-2,4-difluorophenyl]-5-fluoro-2-methylpyridine-3-sulfonamide]	< 50
Cc1ncc(F)cc1S(=O)(=O)Nc1ccc(F)c(-c2ccc3c(-c4nc(C)c(C)[nH]4)ncn3c2)c1F [Compound 145, N-(3-(1-(4,5-dimethyl-1H-imidazol-2-yl)imidazo[1,5-a]pyridin-6-yl)-2,4-difluorophenyl)-5-fluoro-2-methylpyridine-3-sulfonamide]	< 50
COc1ncc(Cl)cc1S(=O)(=O)Nc1ccc(F)c(-c2ccc3c(-c4ccn[nH]4)ncn3c2F)c1F [Compound 105, 5-chloro-N-[2,4-difluoro-3-[5-fluoro-1-(2H-pyrazol-3-yl)imidazo[1,5-a]pyridin-6-yl]phenyl]-2-methoxypyridine-3-sulfonamide]	< 50
COc1ncc(F)cc1S(=O)(=O)Nc1ccc(F)c(-c2ccc3c(-n4cnnn4)ncn3c2)c1F [Compound 74, N-[2,4-difluoro-3-[1-(1,2,3,4-tetrazol-1-yl)imidazo[1,5-a]pyridin-6-yl]phenyl]-5-fluoro-2-methoxypyridine-3-sulfonamide]	< 50
COc1ncc(F)cc1S(=O)(=O)Nc1ccc(F)c([C@@H]2CCc3c(-c4ncc[nH]4)ncn3C2)c1F [Compound 81-2, N-[2,4-difluoro-3-[(6S)-1-(1H-imidazol-2-yl)-5H,6H,7H,8H-imidazo[1,5-a]pyridin-6-yl]phenyl]-5-fluoro-2-methoxypyridine-3-sulfonamide]	< 50
Cc1ncc(Cl)cc1S(=O)(=O)Nc1ccc(F)c(-c2ccc3c(-c4nnc[nH]4)ncn3c2)c1F [Compound 65, 5-chloro-N-[2,4-difluoro-3-[1-(4H-1,2,4-triazol-3-yl)imidazo[1,5-a]pyridin-6-yl]phenyl]-2-methylpyridine-3-sulfonamide]	< 50
COc1ncc(Cl)cc1S(=O)(=O)Nc1ccc(F)c(-c2ccc3c(-n4ccnn4)ncn3c2)c1F [Compound 55-1, 5-chloro-N-[2,4-difluoro-3-[1-(1,2,3-triazol-1-yl)imidazo[1,5-a]pyridin-6-yl]phenyl]-2-methoxypyridine-3-sulfonamide]	< 50
COc1ncc(Cl)cc1S(=O)(=O)Nc1ccc(F)c(-c2cn3cnc(C(=O)NCCN4CCOCC4)c3cn2)c1F [Compound 175, 6-[3-(5-chloro-2-methoxypyridine-3-sulfonamido)-2,6-difluorophenyl]-N-[2-(morpholin-4-yl)ethyl]imidazo[1,5-a]pyrazine-1-carboxamide]	< 50
COc1ncc(Cl)cc1S(=O)(=O)Nc1ccc(F)c(-c2ccn3c(-c4ncc[nH]4)ncc3c2)c1F [Compound 35, 5-chloro-N-[2,4-difluoro-3-[3-(1H-imidazol-2-yl)imidazo[1,5-a]pyridin-7-yl]phenyl]-2-methoxypyridine-3-sulfonamide]	< 50
Cc1cnc(-c2ncn3cc(-c4c(F)ccc(NS(=O)(=O)c5cc(Cl)cnc5C)c4F)ccc23)[nH]1 [Compound 56, 5-chloro-N-[2,4-difluoro-3-[1-(4-methyl-3H-imidazol-2-yl)imidazo[1,5-a]pyridine-6-yl]phenyl]-2-methylpyridine-3-sulfonamide]	< 50
CNC(=O)c1ncn2cc(-c3c(F)ccc(NS(=O)(=O)c4cc(F)cc5c4CCC5O)c3F)ccc12 (stereo not drawn) [Compound 10, 6-[2,6-difluoro-3-(6-fluoro-1-hydroxy-2,3-dihydro-1H-indene-4-sulfonamido)phenyl]-N-methylimidazo[1,5-a]pyridine-1-carboxamide]	< 50
COc1ncc(C#N)cc1S(=O)(=O)Nc1ccc(F)c(-c2ccc3c(-c4ncc[nH]4)ncn3n2)c1F [Compound 97, 5-cyano-N-[2,4-difluoro-3-[5-(1H-imidazol-2-yl)imidazo[1,5-b]pyridazin-2-yl]phenyl]-2-methoxypyridine-3-sulfonamide]	< 50
COc1ncc(Cl)cc1S(=O)(=O)Nc1ccc(F)c(-c2ccc3c(-c4ccno4)ncn3c2)c1F [Compound 99, 5-chloro-N-(2,4-difluoro-3-(1-(isoxazol-5-yl)imidazo[1,5-a]pyridin-6-yl)phenyl)-2-methoxypyridine-3-sulfonamide]	< 50
Cc1ncc(F)cc1S(=O)(=O)Nc1ccc(F)c([C@@H]2CCc3c(-c4ncc[nH]4)ncn3C2)c1F [Compound 80-2, N-[2,4-difluoro-3-[(6S)-1-(1H-imidazol-2-yl)-5H,6H,7H,8H-imidazo[1,5-a]pyridin-6-yl]phenyl]-5-fluoro-2-methylpyridine-3-sulfonamide]	< 50
COc1ncc(C#N)cc1S(=O)(=O)Nc1ccc(F)c(-c2cn3cnc(-c4nc5ccccc5[nH]4)c3cn2)c1F [Compound 112, N-[3-[1-(1H-1,3-benzodiazol-2-yl)imidazo[1,5-a]pyrazin-6-yl]-2,4-difluorophenyl]-5-cyano-2-methoxypyridine-3-sulfonamide]	< 50
COc1ncc(Cl)cc1S(=O)(=O)Nc1ccc(F)c(-c2ccc3c(-c4nnc(C5CC5)[nH]4)ncn3c2)c1F [Compound 87, 5-chloro-N-[3-[1-(5-cyclopropyl-4H-1,2,4-triazol-3-yl)imidazo[1,5-a]pyridin-6-yl]-2,4-difluorophenyl]-2-methoxypyridine-3-sulfonamide]	< 50
COc1ncc(Cl)cc1S(=O)(=O)Nc1ccc(F)c(-c2cn3cnc(-c4nnc(C)[nH]4)c3cn2)c1F [Compound 124, 5-chloro-N-[2,4-difluoro-3-[1-(5-methyl-4H-1,2,4-triazol-3-yl)imidazo[1,5-a]pyrazin-6-yl]phenyl]-2-methoxypyridine-3-sulfonamide]	< 50
